Reference: patent US8247211B2, “Glycopeptide antibiotics” (American Cyanamid Company, priority 2001, dated 2012)

Experiments:
[1] = Anatomic pathology (heart and kidney histopathology) in mice; format: in vivo, CD-1 mice; conditions: 20 mg/kg intravenously daily for 9 days, microscopic histopathology on day 10
In short: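 Juvenile CD-1 mice (20 days old; 5 vehicle, 5 treated) received glycopeptide antibiotic 20 mg/kg i.v. daily for 9 days. Necropsied tissues formalin-fixed, paraffin-embedded, H&E stained and examined microscopically; findings graded slight to severe versus controls.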

Enterococcus sp. = experiment: In vitro antibacterial evaluation: minimum inhibitory concentration (MIC), broth dilution method; format: cell-based; conditions: 18 hours at 35° C.
In short: (§1)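 Test strains, among them recent clinical isolates carrying methicillin, penicillin and/or vancomycin resistance, were inoculated at 5×10^5 CFU/mL. A broth dilution series spanning 64-0.06 μg/mL in Muller-Hinton II […] (NCCLS M7-A2) defined the MIC as the lowest growth-inhibiting concentration.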

Escherichia coli = experiment: as above; format: cell-based; conditions: 18 hours at 35° C.
In short: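 MIC read as lowest drug level preventing visible growth. Organisms at 5×10^5 CFU/mL were exposed to a 64-0.06 μg/mL dilution series in Muller-Hinton II […] following NCCLS broth dilution standard M7-A2.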

Staphylococcus sp. = experiment: as above; format: cell-based; conditions: for MIC Staphylococcus aureus (ATCC 29213): strain ATCC 29213; for MIC Staphylococcus aureus (GC 1131): strain GC 1131; for MIC Staphylococcus aureus (GC 3051): strain GC 3051; for MIC Staphylococcus aureus (GC 3053): strain GC 3053; for MIC Staphylococcus aureus (GC 4541): strain GC 4541; for MIC Staphylococcus aureus (GC 4542): strain GC 4542; for MIC Staphylococcus aureus-SMITH (GC 4543): strain GC 4543; for MIC Staphylococcus aureus (GC 4544): strain GC 4544; for MIC Staphylococcus aureus (GC 4545): strain GC 4545; for MIC Staphylococcus haemolyticus (GC 4546): strain GC 4546; for MIC Coagulase Negative Staphylococcus (GC 4547): strain GC 4547; for MIC Coagulase Negative Staphylococcus (GC 4548): strain GC 4548; for MIC Coagulase Negative Staphylococcus (GC 4549): strain GC 4549; for MIC Coagulase Negative Staphylococcus (GC 4551): strain GC 4551
In short: as §1

Streptococcus sp. = experiment: as above; format: cell-based; conditions: 18 hours at 35° C.
In short: as §1

[2] = test system: Staphylococcus aureus-SMITH (GC 4543); experiment: Acute lethal infection in mice (ED50); format: in vivo; conditions: female CD-1 mice, intraperitoneal challenge, intravenous dose 30 min. after infection, 7 day survival ratios
In short: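 Lethal systemic infection model: female CD-1 mice, 20 ± 1-2 g, intraperitoneal challenge. Single intravenous treatment 30 min after infection; 7-day survival, pooled from 3 tests, gives ED50.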

[3] = Enterococcus faecalis (ATCC 29212)
[4] = Enterococcus faecalis (GC 2242)
[5] = Enterococcus faecalis (GC 2691)
[6] = Enterococcus faecalis (GC 3059)
[7] = Enterococcus faecalis (GC 4552)
[8] = Enterococcus faecalis (GC 4553)
[9] = Enterococcus faecalis (GC 4554)
[10] = Enterococcus faecalis (GC 6189)
[11] = broth dilution, inoculum 5×10^5 CFU/mL
[12] = Streptococcus agalactiae (GC 4564)
[13] = Streptococcus pneumoniae (ATCC 6301)
[14] = Streptococcus pneumoniae (GC 1894)
[15] = Streptococcus pneumoniae (GC 4565)
[16] = Streptococcus pyogenes (GC 4563)

CC(c1ccccc1)C1NC(=O)CNC(=O)C(CO)NC(=O)C(CC2CNC(=N)N2C2OC(CO)C(O)C(O)C2O)NC(=O)C(CC2CNC(=N)N2)NC(=O)C(Cc2ccc(OC3OC(CO)C(OC4OC5COC6(OC5C(O)C4O)C4CC5CC(C4)CC6C5)C(O)C3O)cc2)NC1=O (stereo not shown) [Example 219]
8 µg/mL: MIC Enterococcus faecalis (GC 2242) (Enterococcus sp.; [4]) | MIC Enterococcus faecalis (GC 2691) (Enterococcus sp.; [5]) | MIC Enterococcus faecalis (GC 4552) (Enterococcus sp.; [7]) | MIC Enterococcus faecalis (GC 4553) (Enterococcus sp.; [8]) | MIC Enterococcus faecalis (GC 4554) (Enterococcus sp.; [9]) | MIC Enterococcus faecalis (GC 6189) (Enterococcus sp.; [10]) | MIC Enterococcus faecium (GC 2243) (Enterococcus sp.; Enterococcus faecium (GC 2243)) | MIC Enterococcus faecium (GC 4556) (Enterococcus sp.; Enterococcus faecium (GC 4556)) | MIC Enterococcus faecalis (GC 2242) (Enterococcus sp.; [11]) | MIC Enterococcus faecalis (GC 2691) (Enterococcus sp.; [11]) | MIC Enterococcus faecalis (GC 4552) (Enterococcus sp.; [11]) | MIC Enterococcus faecalis (GC 4553) (Enterococcus sp.; [11]) | MIC Enterococcus faecalis (GC 4554) (Enterococcus sp.; [11]) | MIC Enterococcus faecalis (GC 6189) (Enterococcus sp.; [11]) | MIC Enterococcus faecium (GC 2243) (Enterococcus sp.; [11]) | MIC Enterococcus faecium (GC 4556) (Enterococcus sp.; [11]) | MIC Staphylococcus aureus (GC 4544) (Staphylococcus sp.)
4 µg/mL: MIC Enterococcus avium (GC 4558) (Enterococcus sp.; Enterococcus avium (GC 4558)) | MIC Enterococcus faecium (GC 4557) (Enterococcus sp.; Enterococcus faecium (GC 4557)) | MIC Enterococcus avium (GC 4558) (Enterococcus sp.; [11]) | MIC Enterococcus faecium (GC 4557) (Enterococcus sp.; [11]) | MIC Escherichia coli (GC 4560) (Escherichia coli) | MIC Staphylococcus aureus (ATCC 29213) (Staphylococcus sp.) | MIC Staphylococcus aureus (GC 1131) (Staphylococcus sp.) | MIC Coagulase Negative Staphylococcus (GC 4551) (Staphylococcus sp.)
2 µg/mL: MIC Staphylococcus aureus (GC 3051) (Staphylococcus sp.) | MIC Staphylococcus aureus (GC 3053) (Staphylococcus sp.) | MIC Staphylococcus aureus (GC 4541) (Staphylococcus sp.) | MIC Staphylococcus aureus (GC 4542) (Staphylococcus sp.) | MIC Staphylococcus aureus-SMITH (GC 4543) (Staphylococcus sp.) | MIC Staphylococcus aureus (GC 4545) (Staphylococcus sp.) | MIC Staphylococcus haemolyticus (GC 4546) (Staphylococcus sp.) | MIC Coagulase Negative Staphylococcus (GC 4547) (Staphylococcus sp.) | MIC Coagulase Negative Staphylococcus (GC 4548) (Staphylococcus sp.) | MIC Coagulase Negative Staphylococcus (GC 4549) (Staphylococcus sp.) | MIC Streptococcus agalactiae (GC 4564) (Streptococcus sp.; [12]) | MIC Streptococcus pneumoniae (GC 4565) (Streptococcus sp.; [15]) | MIC Streptococcus pyogenes (GC 4563) (Streptococcus sp.; [16]) | MIC Streptococcus agalactiae (GC 4564) (Streptococcus sp.; [11]) | MIC Streptococcus pneumoniae (GC 4565) (Streptococcus sp.; [11]) | MIC Streptococcus pyogenes (GC 4563) (Streptococcus sp.; [11])
16 µg/mL: MIC Enterococcus faecalis (ATCC 29212) (Enterococcus sp.; [3]) | MIC Enterococcus faecalis (GC 3059) (Enterococcus sp.; [6]) | MIC Enterococcus faecalis (ATCC 29212) (Enterococcus sp.; [11]) | MIC Enterococcus faecalis (GC 3059) (Enterococcus sp.; [11])
0.5 µg/mL: MIC Streptococcus pneumoniae (ATCC 6301) (Streptococcus sp.; [13]) | MIC Streptococcus pneumoniae (ATCC 6301) (Streptococcus sp.; [11])
+++: Anatomical Pathology (Day 10), Kidney [1]
0: Anatomical Pathology (Day 10), Heart [1]
0.5 mg/kg: median effective dose (ED50), Staphylococcus aureus-SMITH (GC 4543) [2]
1 µg/mL: MIC Coagulase Negative Staphylococcus (GC 6257) (Staphylococcus sp.; strain GC 6257) | MIC Streptococcus pneumoniae (GC 1894) (Streptococcus sp.; [14]) | MIC Streptococcus pneumoniae (GC 1894) (Streptococcus sp.; [11])
64 µg/mL: MIC Escherichia coli (ATCC 25922) (Escherichia coli) | MIC Escherichia coli (GC 4559) (Escherichia coli)

CC(C1CCCCC1)C1NC(=O)CNC(=O)C(CO)NC(=O)C(C(O)C2CNC(=N)N2C2OC(CO)C(O)C(O)C2O)NC(=O)C(C(O)C2CNC(=N)N2)NC(=O)C(Cc2ccc(OC3OC(CO)C(OC4OC5COC6(OC5C(O)C4O)C4CC5CC(C4)CC6C5)C(O)C3O)cc2)NC1=O (stereo not shown) [Example 221, Cyclo[3-cyclohexyl-2-aminobutanoyl-O-[4-O-[4,6-O-(2-adamantylidene)hexopyranosyl]hexopyranosyl]tyrosyl-3-(2-iminoimidazolidin-4-yl)seryl-3-(3-hexopyranosyl-2-iminoimidazolidin-4-yl)serylserylglycyl]]
0: Anatomical Pathology (Day 10), Heart [1] | Anatomical Pathology (Day 10), Kidney [1]
<0.12 µg/mL: MIC Streptococcus agalactiae (GC 4564) (Streptococcus sp.; [12]) | MIC Streptococcus pneumoniae (ATCC 6301) (Streptococcus sp.; [13]) | MIC Streptococcus pneumoniae (GC 1894) (Streptococcus sp.; [14]) | MIC Streptococcus pneumoniae (GC 4565) (Streptococcus sp.; [15]) | MIC Streptococcus pyogenes (GC 4563) (Streptococcus sp.; [16]) | MIC Streptococcus agalactiae (GC 4564) (Streptococcus sp.; [11]) | MIC Streptococcus pneumoniae (ATCC 6301) (Streptococcus sp.; [11]) | MIC Streptococcus pneumoniae (GC 1894) (Streptococcus sp.; [11]) | MIC Streptococcus pneumoniae (GC 4565) (Streptococcus sp.; [11]) | MIC Streptococcus pyogenes (GC 4563) (Streptococcus sp.; [11])
2 µg/mL: MIC Enterococcus avium (GC 4558) (Enterococcus sp.; Enterococcus avium (GC 4558)) | MIC Enterococcus faecalis (ATCC 29212) (Enterococcus sp.; [3]) | MIC Enterococcus faecalis (GC 2242) (Enterococcus sp.; [4]) | MIC Enterococcus faecalis (GC 2691) (Enterococcus sp.; [5]) | MIC Enterococcus faecalis (GC 4552) (Enterococcus sp.; [7]) | MIC Enterococcus faecalis (GC 4553) (Enterococcus sp.; [8]) | MIC Enterococcus faecalis (GC 4554) (Enterococcus sp.; [9]) | MIC Enterococcus faecium (GC 2243) (Enterococcus sp.; Enterococcus faecium (GC 2243)) | MIC Enterococcus faecium (GC 4556) (Enterococcus sp.; Enterococcus faecium (GC 4556)) | MIC Enterococcus avium (GC 4558) (Enterococcus sp.; [11]) | MIC Enterococcus faecalis (ATCC 29212) (Enterococcus sp.; [11]) | MIC Enterococcus faecalis (GC 2242) (Enterococcus sp.; [11]) | MIC Enterococcus faecalis (GC 2691) (Enterococcus sp.; [11]) | MIC Enterococcus faecalis (GC 4552) (Enterococcus sp.; [11]) | MIC Enterococcus faecalis (GC 4553) (Enterococcus sp.; [11]) | MIC Enterococcus faecalis (GC 4554) (Enterococcus sp.; [11]) | MIC Enterococcus faecium (GC 2243) (Enterococcus sp.; [11]) | MIC Enterococcus faecium (GC 4556) (Enterococcus sp.; [11]) | MIC Escherichia coli (GC 4560) (Escherichia coli) | MIC Staphylococcus aureus (GC 1131) (Staphylococcus sp.) | MIC Staphylococcus aureus (GC 3051) (Staphylococcus sp.) | MIC Staphylococcus aureus (GC 4541) (Staphylococcus sp.) | MIC Staphylococcus aureus (GC 4542) (Staphylococcus sp.) | MIC Staphylococcus aureus-SMITH (GC 4543) (Staphylococcus sp.) | MIC Staphylococcus aureus (GC 4544) (Staphylococcus sp.) | MIC Staphylococcus aureus (GC 4545) (Staphylococcus sp.) | MIC Staphylococcus haemolyticus (GC 4546) (Staphylococcus sp.) | MIC Coagulase Negative Staphylococcus (GC 4547) (Staphylococcus sp.) | MIC Coagulase Negative Staphylococcus (GC 4551) (Staphylococcus sp.)
32 µg/mL: MIC Escherichia coli (GC 4559) (Escherichia coli)
64 µg/mL: MIC Escherichia coli (ATCC 25922) (Escherichia coli)
0.03 mg/kg: median effective dose (ED50), Staphylococcus aureus-SMITH (GC 4543) [2]
1 µg/mL: MIC Enterococcus faecalis (GC 3059) (Enterococcus sp.; [6]) | MIC Enterococcus faecalis (GC 6189) (Enterococcus sp.; [10]) | MIC Enterococcus faecium (GC 4557) (Enterococcus sp.; Enterococcus faecium (GC 4557)) | MIC Enterococcus faecalis (GC 3059) (Enterococcus sp.; [11]) | MIC Enterococcus faecalis (GC 6189) (Enterococcus sp.; [11]) | MIC Enterococcus faecium (GC 4557) (Enterococcus sp.; [11]) | MIC Staphylococcus aureus (ATCC 29213) (Staphylococcus sp.) | MIC Staphylococcus aureus (GC 3053) (Staphylococcus sp.) | MIC Coagulase Negative Staphylococcus (GC 4548) (Staphylococcus sp.) | MIC Coagulase Negative Staphylococcus (GC 4549) (Staphylococcus sp.)
